Key:
Experiment in all cases: relative viability (nuclei count vs DMSO), 5 days (fraction); higher = more cells survive
[1] = compound: COc1cc(-c2nn([C@H]3CC[C@H](N4CCN(C(C)=O)CC4)CC3)c3ncnc(N)c23)ccc1NC(=O)c1cc2ccccc2n1C + O=C(c1cc(Cc2n[nH]c(=O)c3ccccc23)ccc1F)N1CCN(C(=O)C2CC2)CC1 [Olaparib] (partner 8 µM)
Procedure, shortened: (§1)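 Relative viability divides the nuclei count in treated wells by that in vehicle wells. Lung cancer cell lines were seeded in 1536-well plates, dosed by pin tool the next day, and fixed and stained after 5 days in one step with final 0.05% Triton X-100, 1% formaldehyde and 1 ug/ml Hoechst. Dosing was a single drug or a fixed anchor-drug dose plus five library-drug doses (not always all listed) in √10 steps, and values are medians of duplicate plates imaged at 4×.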

[2] = compound: COc1cc(-c2nn([C@H]3CC[C@H](N4CCN(C(C)=O)CC4)CC3)c3ncnc(N)c23)ccc1NC(=O)c1cc2ccccc2n1C + N=C(N)NC(=N)NCCc1ccccc1 [Phenformin] (partner 250 µM)
Procedure, shortened: as §1

Midostaurin + AZD7762 = compound: CO[C@@H]1[C@H](N(C)C(=O)c2ccccc2)C[C@H]2O[C@]1(C)n1c3ccccc3c3c4c(c5c6ccccc6n2c5c31)C(=O)NC4 [Midostaurin] + NC(=O)Nc1cc(-c2cccc(F)c2)sc1C(=O)N[C@H]1CCCNC1 [AZD7762] (partner 0.2 µM)
Procedure, shortened: as §1

Midostaurin + Luminespib = compound: CO[C@@H]1[C@H](N(C)C(=O)c2ccccc2)C[C@H]2O[C@]1(C)n1c3ccccc3c3c4c(c5c6ccccc6n2c5c31)C(=O)NC4 [Midostaurin] + CCNC(=O)c1noc(-c2cc(C(C)C)c(O)cc2O)c1-c1ccc(CN2CCOCC2)cc1 [Luminespib] (partner 0.01 µM)
Procedure, shortened: as §1

Midostaurin + Trametinib = compound: CO[C@@H]1[C@H](N(C)C(=O)c2ccccc2)C[C@H]2O[C@]1(C)n1c3ccccc3c3c4c(c5c6ccccc6n2c5c31)C(=O)NC4 [Midostaurin] + CC(=O)Nc1cccc(-n2c(=O)n(C3CC3)c(=O)c3c(Nc4ccc(I)cc4F)n(C)c(=O)c(C)c32)c1 [Trametinib] (partner 0.02 µM)
Procedure, shortened: as §1

| Cell Line | relative viability ([1]; first compound 0.0128 µM) | relative viability ([1]; first compound 0.04048 µM) | relative viability ([1]; first compound 0.128 µM) | relative viability ([1]; first compound 1.28 µM) | relative viability ([2]; first compound 0.0128 µM) | relative viability ([2]; first compound 0.04048 µM) | relative viability ([2]; first compound 0.128 µM) | relative viability ([2]; first compound 1.28 µM) | relative viability (Midostaurin + AZD7762; first compound 0.01 µM) | relative viability (Midostaurin + AZD7762; first compound 0.03162 µM) | relative viability (Midostaurin + AZD7762; first compound 0.1 µM) | relative viability (Midostaurin + AZD7762; first compound 0.3162 µM) | relative viability (Midostaurin + Luminespib; first compound 0.01 µM) | relative viability (Midostaurin + Luminespib; first compound 0.03162 µM) | relative viability (Midostaurin + Luminespib; first compound 0.1 µM) | relative viability (Midostaurin + Luminespib; first compound 0.3162 µM) | relative viability (Midostaurin + Trametinib; first compound 0.01 µM) | relative viability (Midostaurin + Trametinib; first compound 0.03162 µM) | relative viability (Midostaurin + Trametinib; first compound 0.1 µM) | relative viability (Midostaurin + Trametinib; first compound 0.3162 µM) |
| --- | --- | --- | --- | --- | --- | --- | --- | --- | --- | --- | --- | --- | --- | --- | --- | --- | --- | --- | --- | --- |
| EBC-1 | 0.679 | 0.746 | 0.546 | 0.654 |  |  |  |  |  |  |  |  |  |  |  |  |  |  |  |  |
| EKVX | 1.01 | 0.972 | 0.774 | 0.409 | 0.234 | 0.245 | 0.211 | 0.199 | 0.604 | 0.713 | 0.883 | 0.778 | 0.883 | 0.868 | 0.823 | 0.749 | 0.321 | 0.348 | 0.292 | 0.351 |
| EMC-BAC-2 | 0.52 | 0.645 | 0.473 | 0.5 | 0.563 | 0.633 | 0.499 | 0.422 | 1.08 | 1.03 | 1.04 | 1.08 | 1.11 | 1.05 | 0.898 | 1.16 | 0.853 | 0.791 | 0.876 | 0.699 |
| EPLC-272H | 0.666 | 1.01 | 0.729 | 0.589 | 0.46 |  | 0.27 | 0.282 | 0.208 | 0.287 | 0.259 | 0.165 | 0.323 |  | 0.333 | 0.48 | 0.352 | 0.304 | 0.28 | 0.301 |
| H3255 | 0.616 | 0.579 | 0.558 | 0.491 | 0.347 | 0.297 | 0.36 | 0.282 | 0.857 | 0.786 | 0.915 | 0.89 | 1.14 | 0.848 | 0.779 | 0.848 | 0.61 | 0.608 | 0.656 | 0.628 |
| HARA | 0.873 | 0.923 | 0.78 | 0.445 | 0.426 | 0.533 | 0.41 | 0.332 | 0.301 | 0.475 | 0.394 | 0.299 | 0.917 | 0.712 | 0.681 | 0.76 | 0.994 | 0.663 | 0.887 | 0.393 |
| HCC-15 | 0.745 | 0.77 | 0.719 | 0.651 | 0.525 | 0.447 | 0.476 | 0.42 | 1.16 | 0.98 | 0.532 | 1.07 | 0.305 | 0.38 | 0.308 | 0.165 | 0.411 | 0.353 | 0.367 | 0.372 |
| HCC-44 | 1.1 | 1.09 | 0.916 | 1.27 | 0.367 | 0.187 | 0.305 | 0.22 | 0.961 | 0.978 | 0.998 | 0.986 |  | 1.1 | 0.964 | 1.11 | 1.05 | 1.01 | 1.06 | 1.05 |

From the supplement of paper PMC10307832
